{"source": "patent US20260226101A1", "about": "“PEPTIDE WITH ANTI-INFLAMMATORY AND ANTI-MICROBIAL ACTIVITY” (priority 2023, published 2026)", "key": {"BALB/C mice": {"test_system": "BALB/C mice", "assay": "Acute toxicity study, single dose", "format": "in vivo", "procedure": "Once after acclimation period, a total of forty mice for IV route of administration, forty mice (half male and half female)/route were randomized based on bodyweight divided into four groups (10 in each group/per route, in each group 5 per sex) per strain via IV route of administration; prior to dosing initiation (table 12). On the day of dosing (designated as Day 0 of the study), the mice were 6 weeks old, and their body weights ranged from 20 to 25 g. The dosing volume was 0.1 ml per mice and the actual volume of peptide IS 111 solution administered was calculated based on body weight measurements obtained on the day of administration and was administered IV in increasing doses of the synthetic test peptide IS 111 0.6, 2.4, & 4.8 mg/kg; (administration once). The routes of administration were the same proposed for use in humans [Food and Drug Administration, 1988]. Prior to dosing the animals were deprived of food for 12 hours but had free access to drinking water. […]\nAfter a single dose administration, mortality and clinical signs associated with toxicity were observed and recorded daily for consecutive two weeks; body weight changes were measured before and after administration on the 14th day. The animals were observed frequently during the first 4-6-hour period following dose administration and once daily, thereafter, for […], during which animals were evaluated for mortality, clinical signs of toxicity, and behavior. […] The number of animals killed for each of the doses was noted and the LD50 calculated by the Up and Down method, which is one of the most used to reduce the number of animals used [P. A. Botham, 2004]. […]\nThe mortality, general health status, and toxic reaction symptoms of the experimental groups were documented. Before the first day of IS 111 administration and during the experiments, a detailed clinical observation was carried out and recorded the changes in skin, eyes and mucous membrane, respiratory system, nervous system, activity, and behaviors of the […]. The body weight was measured and recorded before the first day of administration."}, "[1]": {"test_system": "CLP-induced polymicrobial sepsis", "assay": "Cecal ligation and puncture (CLP) polymicrobial sepsis model", "format": "in vivo, BALB/c mice", "procedure": "Polymicrobial sepsis was induced using the CLP method described by [Wendy E. Walker, 2021; Benjamim et al. 2000], with minor modifications and the anesthetic used. Initially, the Mice were derived of food for 12 h before the CLP procedure and then anesthetized by intraperitoneal injection of ketamine (80-100 mg/kg BW) and xylazine in a dose (5-10 mg/kg) (for 20 g mice ketamine of 0.2 ml and xylazine of 0.1 ml). according to [Machado et al. 2012]. under sterile conditions a midline abdominal incision was made and then, a laparotomy of 10 mm/1 cm was performed, where the abdomen of mice was routinely disinfected and cut open in the middle to expose the abdominal cavity, and the cecum was mobilized, was then ligated below the cecal valve at the distal end of the cecum, ¾ was ligated with a sterile No. 4 thread, and punctured (CLP) with a 20-gauge needle in 2 places at the center of the distal end of the occlusal cecum and squeezed gently to extrude a small amount of intestinal contents through the perforation site to induce sepsis. The cecum was located but not ligated or punctured in the control animals. The cecum was placed back into the peritoneal cavity, and the abdominal incision was then closed in two layers with absorbable ethilon suture 5.0, and the animals were resuscitated with 0.1-0.2 mL of normal saline by subcutaneous injection. The sham group of mice had the identical operation as the treated and disease control groups, which included opening the peritoneum and exposing the bowel but without ligation or needle perforation of the cecum. Betadine/tramadol was used to relieve the pain of mice after operation. During the surgery, the […] was applied to the eyes to prevent dryness of the eyes. All the animals were returned to their cages, where they had free access to food and water. After 2 h of CLP, the treatment groups were administered with test peptides (0.6 & 1.2 mg/kg) and the standard drug through the subcutaneous & Intravenous route. To reduce variability between studies, the CLP method was always carried out by the same investigators. [Zingarelli B et al., Libert C et al., Hellman J et al., 2019].\nMice were subjected to CLP surgery and were discarded if they died during the procedure. In all the animal experiments, the test peptide IS 111 was administered by injections respectively; According to the clinical dosage regimen, IS 111 was repeatedly administered at 2 h after CLP surgery and recovery of animals from anesthesia. The mice were divided into the following treatment groups at random: BALB/c mice are used for Intravenous (IV) route of administration. In each group the half of the animals were killed after 4 and 18 hours, [Hubbard, W. J 2005; Rittirsch D 2009]. In another half of the animals, IS 111 at two doses 0.6 & 1.2 mg/kg were injected IV daily for 5 days following CLP. 0.9% Normal saline was administered in the sham group. The survival of mice was monitored for up to 18 h and the other half of the animals are continued for the survival monitored up to 7 days.\nIn the survival study, survival rates were determined by setting the day 0 from 0 to 18 h after surgery and continuing observation until day 7. In one set of animals/group, survival was monitored every 4 h up to 18 h and in another half subset of animals was followed for 5 days for survival assessment every 12 h after sepsis induction to verify mortality rates. The time of death was recorded as accurately as possible.\nThe physical activity of the mice was recorded independently by two independent observers who were blinded to treatment before sampling as previously described. In this study predetermined grading system was used with a scale of 1 (healthy) to 5 (agony). This scoring system is based on grading physical activity and food intake (table 16) using spontaneous activity of mice, reactivity to external stimuli, and spontaneous food intake to differentiate between grades 1 and 5. […]"}, "[2]": {"test_system": "E. coli ATCC 8739-induced septic peritonitis", "assay": "E. coli-induced septic peritonitis model", "format": "in vivo, BALB/c mice", "settings": "administration at 1, 24 and 72 h post injection of E. coli; last time point of 8 h"}}, "note": "Values joined by “and” are separate entries in the source; they are usually repeats but may differ in a detail not shown here. Equal entries are not always repeated. “Also recorded” adds a separate entry of the source. Ends that are not written are not given here.", "data": [{"substance": "FAKKFAK [IS 111, Phe-Ala-Lys-Lys-Phe-Ala-Lys]", "values": [{"measurement": "Adverse reaction in acute toxicity tests", "setting": "BALB/C mice; any of the concentrations", "result": "no adverse reaction"}, {"measurement": "Mortality", "setting": "BALB/C mice; single dose 0.6, 2.4, 4.8 mg/kg, 14 days", "result": "No mortality"}, {"measurement": "Body weight and organ weights", "setting": "BALB/C mice; single dose 0.6/2.4/4.8 mg/kg, intravenous", "result": "no changes"}, {"measurement": "Activity index", "setting": "[1]; 0.6 mg/Kg, 18 h after CLP, scale 1 (very active) to 5 (lethargic)", "result": "2.8 ± 0.5", "unit": "Grade points"}, {"measurement": "Lung histology", "setting": "[1]; 0.6 mg/kg, 18 h", "result": "Mild lung oedema, haemorrhage, and inflammatory cell infiltration"}, {"measurement": "Serum IL-10", "setting": "[1]; 24-48 h after CLP, treatment 2 h after CLP", "result": "significant decrease"}, {"measurement": "Bacterial growth in the peritoneum / bacterial counts", "setting": "[1]; 18 h after CLP", "result": "inhibited; also recorded: ↓bacterial counts; ↓liver & kidney"}, {"measurement": "Body temperature", "setting": "[1]; 18 h after CLP surgery", "result": "in range of normal values"}, {"measurement": "IL-10 levels in serum", "setting": "[1]; 18 h after CLP, IV", "result": "increased slightly and 6 and IL-12, &↑IL-10 in serum;"}, {"measurement": "Survival percentage", "setting": "[1]; 7 days", "result": 80, "unit": "%"}, {"measurement": "Myeloperoxidase levels in the lung", "setting": "[1]; IS 111-treated mice", "result": "significantly decreased"}, {"measurement": "Reduction of mortality", "setting": "[1]; vs diseased control animals (normal saline)", "result": 80, "unit": "%"}, {"measurement": "Mice still surviving", "setting": "[1]; ~60 h post-CLP (last death in disease control group)", "result": 80, "unit": "%"}, {"measurement": "Survival", "setting": "[2]", "result": 80, "unit": "%"}]}]}
